Counter-ions that a name gives are not always drawn.

The values below come from patent publication US7871960B2, “1-(Imidazolin-2-yl)amino-1,2-diphenylethane compounds for combating animal pests” (BASF SE, priority 2005, dated 2011).

One series concerns Megoura viciae. Briefly: Vetch aphid (Megoura viciae) mortality on sprayed bean leaf disks in microtiterplates. Conditions: foliar, 144 h, bean leaf disks sprayed with 2.5 μl, 6 days, read-out: mortality in comparison with untreated controls. It is filed as in vivo. The procedure: The active compounds were formulated in 1:3 DMSO:water. Bean leaf disks were placed into microtiterplates filled with 0.8% agar-agar and 2.5 ppm OPUS™. The leaf disks were sprayed with 2.5 μl of the test solution and 5 to 8 adult aphids were placed into the microtiterplates which were then closed and kept at 22-24° C. and 35-45% under fluorescent light for 6 days. Mortality was assessed on the basis of vital, reproduced aphids. Tests were replicated 2 times.

Take `Clc1cccc(CC(N=C2NCCN2)c2ccccc2)c1` (centres unmarked) (as salt: salt) [Example 1.1, [2-(3-Chloro-phenyl)-1-phenyl-ethyl]-(4,5-dihydro-1H-imidazol-2-yl)-amine hydroiodide]: the melting point (usually the temperature of the solid-liquid transition) is 162 to 164 °C. On to `CC(=O)N1CCN=C1NC(Cc1ccccc1)c1ccccc1` (centres unmarked) [Example 2.1, 1-[2-(1,2-Diphenylethylamino)-4,5-dihydroimidazol-1-yl]-ethanone], for which the mortality (as a rule, the percentage killed) at 2500 ppm in the series on Megoura viciae is > 80%.
